# Experimental data taken from ChEMBL document CHEMBL2073792, “Hepatic uptake of the magnetic resonance imaging contrast agent gadoxetate by the organic anion transporting polypeptide Oatp1” (J Pharmacol Exp Ther, 1999).
# Assays:
# Format in all cases: functional, cell-based
# Details in all cases: oocyte
# [1] = target: T1, Solute carrier organic anion transporter family member 1A1 (Rattus norvegicus, UniProt P46720); experiment: TP_TRANSPORTER: inhibition of Gadoxetate uptake (Gadoxetate: 100 uM, Rifampicin: 100 uM) in Xenopus laevis oocytes
# T1 sequence (P46720 whole entry): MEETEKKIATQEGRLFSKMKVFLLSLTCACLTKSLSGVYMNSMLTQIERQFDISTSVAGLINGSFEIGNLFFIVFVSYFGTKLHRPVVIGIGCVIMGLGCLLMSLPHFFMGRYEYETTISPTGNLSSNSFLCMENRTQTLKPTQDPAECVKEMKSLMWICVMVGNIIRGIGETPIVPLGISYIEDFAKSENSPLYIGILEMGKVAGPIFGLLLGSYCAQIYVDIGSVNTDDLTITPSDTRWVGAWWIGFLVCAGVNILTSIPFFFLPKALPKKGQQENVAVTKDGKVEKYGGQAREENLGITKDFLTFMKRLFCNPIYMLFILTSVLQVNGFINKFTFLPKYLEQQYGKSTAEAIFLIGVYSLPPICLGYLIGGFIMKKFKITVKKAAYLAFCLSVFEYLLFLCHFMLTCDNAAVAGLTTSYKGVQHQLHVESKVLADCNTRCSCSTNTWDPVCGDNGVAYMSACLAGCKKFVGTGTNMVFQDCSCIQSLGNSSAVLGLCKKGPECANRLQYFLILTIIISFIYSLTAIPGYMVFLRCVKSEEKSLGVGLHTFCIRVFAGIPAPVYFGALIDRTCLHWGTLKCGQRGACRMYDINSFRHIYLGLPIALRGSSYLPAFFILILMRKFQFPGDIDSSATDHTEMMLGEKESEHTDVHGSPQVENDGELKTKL
# [2] = target: T1, Solute carrier organic anion transporter family member 1A1; experiment: TP_TRANSPORTER: inhibition of Gadoxetate uptake (Gadoxetate: 100 uM, Rifamycin SV: 100 uM) in Xenopus laevis oocytes
# [3] = target: T1, Solute carrier organic anion transporter family member 1A1; experiment: TP_TRANSPORTER: inhibition of Gadoxetate uptake (Gadoxetate: 100 uM, BSP: 10 uM) in Xenopus laevis oocytes
# [4] = target: T1, Solute carrier organic anion transporter family member 1A1; experiment: TP_TRANSPORTER: uptake in Xenopus laevis oocytes
molecule,measurement,setting,value
CO[C@H]1/C=C/O[C@@]2(C)Oc3c(C)c(O)c4c(O)c(c(/C=N/N5CCN(C)CC5)c(O)c4c3C2=O)NC(=O)/C(C)=C\C=C\[C@H](C)[C@H](O)[C@@H](C)[C@@H](O)[C@@H](C)[C@H](OC(C)=O)[C@@H]1C [RIFAMPIN],Activity,[1],inhibitor [(at a rough estimate) 50 % of control]
CO[C@H]1/C=C/O[C@@]2(C)Oc3c(C)c(O)c4c(O)c(cc(O)c4c3C2=O)NC(=O)/C(C)=C\C=C\[C@H](C)[C@H](O)[C@@H](C)[C@@H](O)[C@@H](C)[C@H](OC(C)=O)[C@@H]1C [RIFAMYCIN],Activity,[2],inhibitor [(at a rough estimate) <5 % of control]
O=C1OC(c2ccc(O)c(S(=O)(=O)[O-])c2)(c2ccc(O)c(S(=O)(=O)[O-])c2)c2c(Br)c(Br)c(Br)c(Br)c21.[Na+].[Na+] [SULFOBROMOPHTHALEIN SODIUM],Activity,[3],inhibitor [(at a rough estimate) 55 % of control]
GADOXETATE,Km,[4],3.3 mM
